Peptide text beside a SMILES is read from it.
Tests used:
Format in all cases: cell-based, human
HUVECs [1] = assay: Cytotoxicity testing of peptides in HUVECs (CCK-8); settings: for toxicity to HUVECs (in words): concentration range 3.9–1000 μg/mL; for toxicity to HUVECs (in words) / effect on HUVEC growth (in words) / cytotoxicity to HUVECs (in words): 24 h, CCK-8; for effect on HUVEC growth (in words): within 3.9–1000 μg/mL; for effect on HUVEC viability (in words): vs control p < 0.01
Method: Peptide cytotoxicity in HUVECs was assessed using the CCK‐8 assay to determine cell viability (Suo et al. [2022]). HUVECs were digested with 0.25% trypsin, resuspended in RPMI 1640 complete medium containing 10% FBS at a density of 5 × 10^4 cells/mL, and seeded into 96‐well plates at 100 μL/well. Cells were incubated in a CO2 incubator (37°C, 5% CO2) for 12 h.
Control and experimental groups were established with six replicates each. After cell adhesion, 10 μL of peptide solution was added to the experimental groups at final concentrations of 3.9, 7.8, 15.6, 31.25, 62.5, 125, 250, 500, and 1000 μg/mL, whereas the control group received an equivalent volume of complete medium. After 24 h of incubation in the CO2 incubator, 10 μL of CCK‐8 solution was added to each well, and cells were incubated for 1 h. Optical density (OD) was measured at 450 nm using an Infinite M1000 Pro microplate reader (Tecan, Switzerland). Cell viability was calculated using the following formula: Cell Viability%=AS−AO/AC−AO×100% where A C represents the OD of the control group, A S indicates the OD of the experimental group, and A O is the OD of the blank wells.

HUVECs damaged by AAPH [2] = settings: at different concentrations, 6 mmol/L AAPH model, p > 0.05
Method: The experiment included control, model, and experimental groups. HUVECs were seeded into 96‐well plates at a density of 5 × 10^4 cells/mL at 100 μL per well, with six replicates per group. After cell adhesion, the model and experimental groups were treated with 10 μL of AAPH solution to a final concentration of 6 mmol/L, whereas the control group received an equivalent volume of medium. After 24 h, the experimental groups were treated with 10 μL of peptide solutions to final concentrations of 3.9, 7.8, 15.6, 31.25, 62.5, 125, 250, 500, and 1000 μg/mL. The control and model groups received an equivalent volume of medium.

HUVECs damaged by AAPH [3] = assay: ROS levels in AAPH-damaged HUVECs (DCFH-DA); settings: 24 h after 6 mmol/L AAPH 24 h, DCFH-DA fluorescence
Method: Model and experimental groups were established, and HUVECs were seeded into 96-well plates at a density of 5 × 10^4 cells/mL at 100 μL/well, with six replicates per group. After cell adhesion, the control group received the medium, whereas the model and experimental groups were treated with 10 μL of AAPH solution to a final concentration of 6 mmol/L. After 24 h of incubation, experimental groups were treated with 10 μL of peptide […] at final concentrations of 250, 500, and 1000 μg/mL. The control and model groups received an equivalent volume of the medium. After another 24 h of incubation, ROS levels were measured according to the instructions of the ROS detection kit. Cells were washed twice with PBS, treated with 10 μL of 10 μmol/L DCFH-DA working solution, and incubated in the dark for 30 min in the CO2 incubator (37°C, 5% CO2). The cells were then washed three times with PBS, and the fluorescence intensity was measured using an Infinite […] microplate reader (Tecan, Switzerland).

HUVECs damaged by AAPH [4] = assay: SOD activity in AAPH-damaged HUVECs; settings: 250, 500, and 1000 μg/mL, 24 h after 6 mmol/L AAPH 24 h; p < 0.05; three replicates
Method: (§1) The model and experimental groups were established, and HUVECs were seeded into 6-well plates at a density of 5 × 10^4 cells/mL at 2 mL/well, with three replicates per group. After cell adhesion, the model and experimental groups were treated with 2 mL of AAPH solution at a final concentration of 6 mmol/L, whereas the control group received an equivalent volume of the medium. After 24 h of incubation, experimental groups were treated with 200 μL of peptide […] at a final concentration of 250, 500, and 1000 μg/mL. The control and model groups received an equivalent volume of the medium. After 24 h incubation, the cells were collected, and the protein content was measured using the BCA protein assay kit. The activities of SOD, CAT, and GSH were determined using the respective assay kits.

HUVECs damaged by AAPH [5] = assay: CAT activity in AAPH-damaged HUVECs; settings: 250, 500, and 1000 μg/mL, 24 h after 6 mmol/L AAPH 24 h; p < 0.05; three replicates
Method: as §1

HUVECs damaged by AAPH [6] = assay: GSH content in AAPH-damaged HUVECs; settings: 250, 500, and 1000 μg/mL, 24 h after 6 mmol/L AAPH 24 h; p < 0.05; three replicates
Method: as §1

HUVECs [7] = assay: Establishment of the AAPH-induced HUVEC oxidative damage model (CCK-8 viability); settings: 24 h; for cell survival rate: CCK-8
Method: The oxidative damage model was established using the method described by Li et al. ([2023]). HUVECs were seeded into 96‐well plates at a density of 5 × 10^4 cells/mL at 100 μL/well and incubated in a CO2 incubator (37°C, 5% CO2) for 12 h.

[8] = concentrations of 3.9–500 μg/mL

CC(C)[C@H](NC(=O)[C@H](CCC(=O)O)NC(=O)[C@H](CCC(=O)O)NC(=O)[C@@H](NC(=O)[C@@H](NC(=O)[C@H](CCC(=O)O)NC(=O)[C@@H]1CCCN1C(=O)[C@H](CCC(=O)O)NC(=O)[C@@H](N)Cc1ccccc1)[C@@H](C)O)[C@@H](C)O)C(=O)N[C@@H](CCCNC(=N)N)C(=O)O [FEPETTEEVR] (H-FEPETTEEVR-OH; N-terminus and C-terminus assumed)
toxicity to HUVECs (in words) (HUVECs [1]): no toxicity
effect on HUVEC growth (in words) (HUVECs [1]): promoted cell growth

CC(C)[C@H](NC(=O)[C@H](C)N)C(=O)N[C@H](C(=O)N[C@@H](CCC(=O)O)C(=O)N[C@@H](CO)C(=O)N[C@@H](CCCCN)C(=O)O)C(C)C [AVVESK] (H-AVVESK-OH; N-terminus and C-terminus assumed)
cytotoxicity to HUVECs (in words) (HUVECs [1]; [8]): no cytotoxicity

CC[C@H](C)[C@H](NC(=O)[C@H](Cc1c[nH]cn1)NC(=O)CNC(=O)[C@@H](N)Cc1ccccc1)C(=O)N[C@@H](CO)C(=O)N[C@H](C(=O)O)C(C)C [FGHISV] (H-FGHISV-OH; N-terminus and C-terminus assumed)
cytotoxicity to HUVECs (in words) (HUVECs [1]; [8]): no cytotoxicity
cell viability compared with the model group (in words) (HUVECs damaged by AAPH [2]): did not show significant differences

CC[C@H](C)[C@H](NC(=O)[C@H](CCC(=O)O)NC(=O)[C@H](CCSC)NC(=O)[C@@H]1CCCN1C(=O)[C@@H](NC(=O)[C@H](Cc1c[nH]cn1)NC(=O)[C@H](CC(N)=O)NC(=O)[C@H](CO)NC(=O)[C@H](CCC(N)=O)NC(=O)[C@H](CO)NC(=O)[C@@H](NC(=O)[C@H](Cc1c[nH]c2ccccc12)NC(=O)[C@@H](NC(=O)[C@@H](N)Cc1ccccc1)[C@@H](C)O)C(C)C)[C@@H](C)CC)C(=O)N[C@@H](CCC(=O)O)C(=O)N[C@@H](CCC(=O)O)C(=O)N[C@@H](CC(=O)O)C(=O)N[C@@H](CO)C(=O)N[C@@H](C)C(=O)N[C@@H](CCCCN)C(=O)N1CCC[C@H]1C(=O)N[C@@H](Cc1c[nH]c2ccccc12)C(=O)N[C@@H](CC(C)C)C(=O)O (H-FTWVSQSNHIPMEIEEDSAKPWL-OH; N-terminus and C-terminus assumed)
effect on HUVEC viability (in words) (HUVECs [1]; 31.25–1000 μg/mL): clear inhibitory effect

NCC(=O)N[C@@H](CCC(=O)O)C(=O)N[C@@H](Cc1ccc(O)cc1)C(=O)N[C@@H](CCC(N)=O)C(=O)O [GEYQ] (H-GEYQ-OH; N-terminus and C-terminus assumed)
effect on HUVEC viability (in words) (HUVECs [1]; 3.9–62.5 μg/mL): clear inhibitory effect

CSCC[C@H](NC(=O)[C@H](Cc1ccc(O)cc1)NC(=O)CNC(=O)[C@H](CCSC)NC(=O)[C@@H](NC(=O)[C@H](CO)NC(=O)[C@@H](NC(=O)[C@@H](N)CC(=O)O)[C@@H](C)O)[C@@H](C)O)C(=O)N[C@@H](C)C(=O)N[C@@H](C)C(=O)N[C@@H](CCCCN)C(=O)O [DTSTMGYMAAK] (H-DTSTMGYMAAK-OH; N-terminus and C-terminus assumed)
toxicity to HUVECs (in words) (HUVECs [1]): no toxicity
cell viability compared with the model group (in words) (HUVECs damaged by AAPH [2]): did not show significant differences

NCCCC[C@H](NC(=O)[C@H](CC(=O)O)NC(=O)[C@H](CCC(=O)O)NC(=O)[C@H](CC(=O)O)NC(=O)[C@H](CCC(=O)O)NC(=O)[C@H](CC(=O)O)NC(=O)[C@H](CCC(=O)O)NC(=O)[C@@H](N)CC(=O)O)C(=O)O [DEDEDEDK] (H-DEDEDEDK-OH; N-terminus and C-terminus assumed)
effect on HUVEC growth (in words) (HUVECs [1]): promoted cell growth
ROS content compared with the model group (in words) (HUVECs damaged by AAPH [3]; DEDEDEDK 1000 μg/mL, p < 0.05): significantly reduced
ROS levels compared with the model group (in words) (HUVECs damaged by AAPH [3]; DEDEDEDK 250 and 500 μg/mL, p > 0.05): no significant change
SOD activity in the cells vs model group (in words) (HUVECs damaged by AAPH [4]): increased significantly
CAT activity in the cells vs model group (in words) (HUVECs damaged by AAPH [5]): increased significantly
GSH content in the cells vs model group (in words) (HUVECs damaged by AAPH [6]): significantly increased

N[C@@H](CCC(=O)O)C(=O)N[C@@H](CC(=O)O)C(=O)N[C@@H](CCC(=O)O)C(=O)O [EDE] (H-Glu-Asp-Glu-OH; N-terminus and C-terminus assumed)
effect on HUVEC growth (in words) (HUVECs [1]): promoted cell growth
cell viability compared with the model group (in words) (HUVECs damaged by AAPH [2]): did not show significant differences

CC[C@H](C)[C@H](NC(=O)[C@H](CC(=O)O)NC(=O)[C@@H](N)CC(=O)O)C(=O)N[C@@H](CCSC)C(=O)N[C@@H](CCC(=O)O)C(=O)N[C@@H](CC(=O)O)C(=O)N[C@@H](CCCCN)C(=O)N[C@@H](CC(=O)O)C(=O)N[C@@H](CC(N)=O)C(=O)N[C@@H](Cc1ccccc1)C(=O)O [DDIMEDKDNF] (H-DDIMEDKDNF-OH; N-terminus and C-terminus assumed)
cytotoxicity to HUVECs (in words) (HUVECs [1]; 3.9–250 μg/mL): nontoxic

C[C@H](NC(=O)[C@@H](N)CC(=O)O)C(=O)N[C@@H](CO)C(=O)N[C@@H](CS)C(=O)N[C@@H](CCCCN)C(=O)O [DASCK] (H-DASCK-OH; N-terminus and C-terminus assumed)
toxicity to HUVECs (in words) (HUVECs [1]): no toxicity
effect on HUVEC growth (in words) (HUVECs [1]): promoted cell growth

CC(C)(N=NC(C)(C)C(=N)N)C(=N)N.Cl.Cl [AAPH, 2,2′‐azobis(2‐methylpropionamidine) dihydrochloride]
cell survival rate (HUVECs [7]; AAPH 4 mmol/L): 92.64% ± 0.06%
cell survival rate (HUVECs [7]; AAPH 6 mmol/L): 87.35% ± 0.05%
cell survival rate (HUVECs [7]; AAPH 8 mmol/L): 78.64% ± 0.03%
cell survival rate (HUVECs [7]; AAPH 10 mmol/L): 43.10% ± 0.04%
cell survival rate (HUVECs [7]; AAPH 12 mmol/L): 5.07% ± 0.01%
cell viability (HUVECs [7]; AAPH 0.25, 0.5, 1, and 2 mmol/L, significantly higher than control (p < 0.01)): > 100%
